Assay results from patent US12612405B2, “Crystalline form of 1-(8-Bromopyrido[2,3-E][1,2,4]triazolo[4,3-a]pyrazin-4-Yl)-Nmethylazetidin-3-amine hydrogen sulfate monohydrate” (JW PHARMACEUTICAL CORPORATION, priority 2021, dated 2026).
Entries after “also recorded” stand apart in the source; their conditions may differ.

Columns and labels:
[1] = tested on: inflammatory cells such as mast cells and eosinophils; details: cited from earlier work
histamine 4 receptor = histamine 4 receptor (Homo sapiens, UniProt Q9H3N8); details: cited from earlier work
histamine 4 receptor, sequence (Q9H3N8 whole entry): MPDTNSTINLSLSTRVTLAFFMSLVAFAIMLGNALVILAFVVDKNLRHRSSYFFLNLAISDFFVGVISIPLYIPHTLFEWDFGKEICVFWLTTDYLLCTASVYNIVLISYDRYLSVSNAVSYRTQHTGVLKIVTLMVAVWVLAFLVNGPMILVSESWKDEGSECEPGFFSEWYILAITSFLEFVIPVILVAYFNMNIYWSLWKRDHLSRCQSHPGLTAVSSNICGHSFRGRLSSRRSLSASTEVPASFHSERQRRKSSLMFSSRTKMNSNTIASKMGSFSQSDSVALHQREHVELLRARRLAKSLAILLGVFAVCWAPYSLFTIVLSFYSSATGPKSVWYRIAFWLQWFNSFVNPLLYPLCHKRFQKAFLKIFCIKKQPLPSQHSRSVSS

[2] = Solubility in common crystallization solvents; details: common crystallization solvents including alcohols
[3] = Interconversions between the crystalline forms (stability at rt, in suspension, during drying); assay type: physicochemical; details: for solid phase stability / transition at room temperature: rt, ambient conditions; for stability during drying: drying process; for stability under conditions / suspensions with high water content: high amounts of water
Text: The table below summarizes interconversions between the different forms and other issues which may be relevant to their use in pharmaceutical compositions: […]

[4] = Dynamic Vapor Sorption (DVS); assay type: physicochemical; details: for hygroscopicity classification: according to Ph. Eur.
Method: Instrument: DVS Advantage
Methods: About 5 mg of the substance was added into Al pan and exposed to stepwise RH changes during two consecutive cycles according to; 20-30-40-50-60-70-80-70-60-50-40-30-20-10-0-10-20-30-40-50-60-70-80-90-80-70-60-50-40-30-20-10-0/RH using open loop mode. The experiments were performed using a gas flow rate of 200 ml/min and at 25° C. The dm/dt criteria applied was 0.001 weight-%/min during a 5 minutes window, with a maximum allowed time of 150 minutes for all steps, except for the steps at 0% RH which had no criteria but were set to 6 h.

[5] = Solubility according to Ph. Eur. and USP; assay type: physicochemical
Text: The solubility of form B according to Ph.

[6] = Thermal stability by TGA / DSC; assay type: physicochemical
Method: TGA experiments were conducted using a TGA550 instrument from TA Instruments. About 1-10 mg of sample was loaded into a ceramic pan for the measurements. The sample temperature was ramped from 25 to 500° C. at 10° C./min. Nitrogen was used as the purge gas at a flow rate of 50 mL/min.
DSC analyses were carried out on a TA Instruments Q20 Differential Scanning Calorimeter. Accurately weighed samples were placed in crimped aluminum pans. Each sample was heated under nitrogen at a rate of 10° C./minute to a maximum of 300° C. Indium metal was used as the calibration standard.

CNC1CN(c2nc3ncc(Br)cc3n3cnnc23)C1 [1-(8-bromopyrido[2,3-e][1,2,4]triazolo[4,3-a]pyrazin-4-yl)-N-methylazetidin-3-amine]
effect against histamine induced infiltration of inflammatory cells [1]: suppressive effects
histamine 4 receptor inhibitory effect (histamine 4 receptor): strong histamine 4 receptor inhibitory effect
solubilities in common solvents used for crystallizations [2]: very low solubilities

CNC1CN(c2nc3ncc(Br)cc3n3cnnc23)C1.O=S(=O)(O)O [Form A, 1-(8-bromopyrido[2,3-e][1,2,4]triazolo[4,3-a]pyrazin-4-yl)-N-methylazetidin-3-amine hydrogen sulfate]
solid phase stability / transition at room temperature ([3]; hydrogen sulfate): that undergoes solid phase transition to form B at rt over time.

CNC1CN(c2nc3ncc(Br)cc3n3cnnc23)C1.O.O=S(=O)(O)O [Form B, 1-(8-bromopyrido[2,3-e][1,2,4]triazolo[4,3-a]pyrazin-4-yl)-N-methylazetidin-3-amine hydrogen sulfate monohydrate]
water absorbed (DVS) ([4]; 25° C., between 10 and 80% RH): By (DVS) it was demonstrated that form B absorbs 0.2%
hygroscopicity classification ([4]; DVS): considered non-hygroscopic according to Ph. Eur. 5. (the increase in mass of a drug substance between about 0% to 80% relative humidity is less than 0.2% by weight)
solubility ([5]; 1-4-dioxane): insoluble
solubility ([5]; 1-propanol): insoluble
solubility ([5]; 2-propanol): insoluble
solubility ([5]; acetone): insoluble
solubility ([5]; chloroform): insoluble
solubility ([5]; dimethyl sulfoxide): Soluble
solubility ([5]; dimethylformamide): slightly soluble
solubility ([5]; ethanol): insoluble
solubility ([5]; ethyl acetate): insoluble
solubility ([5]; isopropyl acetate): insoluble
solubility ([5]; methanol): very slightly soluble
solubility ([5]; methyl tert-butyl ether): insoluble
solubility ([5]; n-butyl acetate): insoluble
solubility ([5]; tert-amyl alcohol): insoluble
solubility ([5]; tetrahydrofuran): insoluble
solubility ([5]; water): sparingly soluble
solubility ([5]; xylene): insoluble

CNC1CN(c2nc3ncc(Br)cc3n3cnnc23)C1.O=S(=O)(O)O [Form C, 1-(8-bromopyrido[2,3-e][1,2,4]triazolo[4,3-a]pyrazin-4-yl)-N-methylazetidin-3-amine hydrogen sulfate]
phase transition when humidity increased to 90% ([4]; DVS, humidity increased to 90%): observed and partial phase transition to the non-stoichiometric
hygroscopicity classification ([4]; DVS): is just in the range for being slightly hygroscopic. DVS
water uptake at increased relative humidity ([4]; increased relative humidity): The anhydrate significantly takes up water at increased
stability in liquid environment containing more than 20% water ([3]; liquid environment, more than 20% water): 20% water form C will not be stable and therefore can be

CNC1CN(c2nc3ncc(Br)cc3n3cnnc23)C1.O=S(=O)(O)O [Form D, 1-(8-bromopyrido[2,3-e][1,2,4]triazolo[4,3-a]pyrazin-4-yl)-N-methylazetidin-3-amine hydrogen sulfate]
solid phase stability / transition at room temperature ([3]; hydrogen sulfate): solid phase transformation to form C.
stability in suspension formulations ([3]; suspension formulations, hydrogen sulfate): converts to forms F, I, or N depending on the conditions.

CNC1CN(c2nc3ncc(Br)cc3n3cnnc23)C1.O=S(=O)(O)O [Form F, 1-(8-bromopyrido[2,3-e][1,2,4]triazolo[4,3-a]pyrazin-4-yl)-N-methylazetidin-3-amine hydrogen sulfate]
stability during drying ([3]; hydrogen sulfate): Converts to another form during drying process. The water can; also recorded: very easily be dried off
stability under conditions / suspensions with high water content ([3]; hydrogen sulfate): with high water content form F converts to form I.

CNC1CN(c2nc3ncc(Br)cc3n3cnnc23)C1.O=S(=O)(O)O [Form I, 1-(8-bromopyrido[2,3-e][1,2,4]triazolo[4,3-a]pyrazin-4-yl)-N-methylazetidin-3-amine hydrogen sulfate]
stability during drying ([3]; hydrogen sulfate): not stable during drying at room temperature where it; also recorded: converts to form K, which then converts to form C at room; also recorded: product as it converts to form C in drying processes
stability under conditions / suspensions with high water content [3]: the crystal structure. The dihydrate form I is the most stable

CNC1CN(c2nc3ncc(Br)cc3n3cnnc23)C1.O=S(=O)(O)O [Form K, 1-(8-bromopyrido[2,3-e][1,2,4]triazolo[4,3-a]pyrazin-4-yl)-N-methylazetidin-3-amine hydrogen sulfate]
stability during drying ([3]; hydrogen sulfate): Form K converts to form C in drying processes.
solid phase stability / transition at room temperature ([3]; hydrogen sulfate): Form K converts to form C at room temperature.

CNC1CN(c2nc3ncc(Br)cc3n3cnnc23)C1.O=S(=O)(O)O [Form M, 1-(8-bromopyrido[2,3-e][1,2,4]triazolo[4,3-a]pyrazin-4-yl)-N-methylazetidin-3-amine hydrogen sulfate]
broad endothermic event due to water loss and breakdown of the crystal lattice [6]: 44 °C
temperature of weight loss (TGA curve) ([6]; TGA): 50 °C
thermal stability ([6]; hydrogen sulfate): Form M is a monohydrate but loses water and melts at very; also recorded: this low thermal stability form M is not suitable for

CNC1CN(c2nc3ncc(Br)cc3n3cnnc23)C1.O=S(=O)(O)O [hydrogen sulfate salt, 1-(8-bromopyrido[2,3-e][1,2,4]triazolo[4,3-a]pyrazin-4-yl)-N-methylazetidin-3-amine hydrogen sulfate]
solubilities in common solvents used for crystallizations [2]: very low solubilities
